What was measured:
[1] = tested on: wild-type human melanocytes; experiment: Human melanocyte melanin assay, wild-type (control); type: cell-based; settings: 1 mM tyrosine, about one week
Protocol: (§1) Human melanocyte culture and melanin assay. Human melanocytes were established from skin punch biopsies. Skin specimens were washed with PBS then treated with 0.25% trypsin-EDTA (Gibco 25200) for about 2 hours followed by vigorous vortexing to separate the epidermis. The epidermis was sectioned and attached to scored patches on the bottom of a 6-well polystyrene culture dish before being covered with melanocyte media. About 1000 ml of melanocyte media was made from 950 ml Ham's F10 (Gibco 1550), 25 ml FBS, 5 ug bFGF (Sigma F0291), 10 μg endothelin (Sigma, E7764, Sigma Chemicals, St. Louis, Mo.), 7.5 mg IBMX (Sigma 17018), 30 μg cholera toxin (Sigma C8052), 3.3 μg TPA (Sigma P8139), 10 ml PenStrepGlutamine, 1 ml fungizone and the media was 0.22 μm filtered.
(§2) Melanocytes were plated on 6 well dishes and grown to confluency. Melanin assays were run in triplicate by supplementing three wells per plate with 1 mM tyrosine (Sigma T8566), using the remaining 3 wells as untreated controls. Treatment time was approximately one week. […] The OD475 was measured and converted to melanin content via a standard curve using synthetic melanin (Sigma M0418). The data were normalized to protein content, determined using a bicinchoninic (BCA) assay kit (BioRad, Inc., Hercules, Calif.). Differences between treated and untreated measurements were analyzed with a two-tailed unpaired t-test. […]

[2] = tested on: melanocytes from an OCA-1A patient; experiment: Human melanocyte melanin assay, OCA-1A patient; type: cell-based; settings: presence or absence of 1 mM tyrosine
Protocol: as §1, §2

[3] = tested on: melanocytes from a patient with OCA-1B; experiment: Human melanocyte melanin assay, OCA-1B patient; type: cell-based; settings: 1 mM tyrosine, p=0.0025, not to wild-type level
Protocol: as §1, §2

[4] = tested on: C57BL/6J-Tyr^c-2J/c-2J mice (OCA1a model); experiment: Plasma tyrosine in NTBC-treated Tyr^c-2J/c-2J mice; type: in vivo, mouse
Protocol: Drug Dosing and Monitoring. […] Plasma tyrosine was assayed from retro-orbital blood taken from mice at 1 week, and 4 weeks into treatment. Because the volume of blood that could be obtained from non-terminal bleeds was small, the plasma from 2-3 mice was pooled to make a single measurement. Plasma samples were frozen immediately after collection on dry ice. Samples ready for assay were gently thawed, diluted with an equal volume of loading buffer (0.2 M lithium citrate, pH 2.2), and filtered using Vivaspin 500 (3000 Da molecular weight cut-off, Sartorius Stedman Biotech, Goettingen, Germany) spun in a fixed angle centrifuge at about 14000×g for 60 minutes at a temperature of about 16-20° C. The supernatant was collected and tyrosine was quantitated on a Biochrom 30 […] (Biochrom, Ltd., Cambridge, UK) using the manufacturer's specifications. At the beginning of the study, baseline plasma concentrations of tyrosine, coat color (gross and microscopic), anterior segment pigment, and posterior segment pigment were documented for each mouse prior to initiating experiments. […] It is known that a possible side effect of NTBC treatment is corneal irritation, which is monitored daily. […] At the end of four weeks time, plasma tyrosine concentrations were assessed in both treated and control animals.

[5] = tested on: C57BL/6J-Tyr^c-2J/c-2J mice (OCA1a model); experiment: Transmission electron microscopy of iris, RPE and choroid, Tyr^c-2J/c-2J mice; type: in vivo, mouse; settings: treated vs untreated
Protocol: Transmission Electron Microscopy. Eyes from drug and vehicle-treated mice were dissected and divided into anterior and posterior segments (n=2 eyes from 2 separate mice in each group). The iris and posterior part (choroid, RPE and retina) of the eyes were removed and fixed in 2% glutaraldehyde and 2% paraformaldehyde in 0.1 M sodium phosphate buffer (PB), pH 7.4 for about 12 hours at room temperature (RT). After a wash with rinsing buffer (RB, 4% sucrose and 0.15 mM CaCl2 in PB), pH 7.4 at 4° C., tissues were postfixed in 1% OsO4 in 0.1 M PB, pH 7.4 for 1 hour. After rinsing and dehydration, tissues were embedded in Durcupan resin for 72 hours at 60° C. One micron semi-sections were used for tissue orientation. About 70-90 nm ultrasections were also collected in 200 mesh grids and counterstained with 5% uranyl acetate and 0.3% lead citrate. […]
In order to quantitate the effect of NTBC on pigmentation in ocular tissues and to assess for sub-clinical changes in ocular pigmentation, transmission electron microscopy (TEM) of iris, retinal pigment epithelium (RPE), and choroid of treated and control mice (n=4 eyes from 2 mice for each group) was performed. […]

[6] = tested on: male Alpk:ApfCD-1 albino mice; settings: cited from earlier work

Structure (SMILES) | Melanin production [1] | Pigment production [2] | Pigmentation [3] | Plasma tyrosine concentration ([4]; Tyr^c-2J/c-2J (OCA1a model), 4 mg/kg q.o.d. oral, after 30 days, n = 4) | Plasma tyrosine concentrations, treated vs control ([4]; Tyr^c-2J/c-2J mice, 1 mg/kg every other day by oral gavage, one month) | Number of pigmented melanosomes (stages III and IV) in iris, choroid and RPE (TEM) [5] | Tolerated NTBC dose ([6]; male Alpk:ApfCD-1 albino mice, age 3-6 weeks) | NTBC dose at which maximum plasma tyrosine concentrations were achieved ([6]; mice, toxicologic studies (Lock et al.)) [mg/kg]
N[C@@H](Cc1ccc(O)cc1)C(=O)O [tyrosine] | produce significant melanin | did not produce detectable pigment | significantly increased pigmentation |  |  |  |  | 
O=C1CCCC(=O)C1C(=O)c1ccc(C(F)(F)F)cc1[N+](=O)[O-] [NTBC, 2-(-2-nitro-4 trifluoromethylbenzoyl)-1,3 cyclohexanedione] |  |  |  | 673 ± 73 μM (n = 4, | not statistically significantly different | little to no increase | up to 160 mg/kg/day | ≤ 10
